“And” between values parts separate entries of the source, which are not always exact repeats. Equal values may be shown once.
What was measured:
[1] = test system: differentiating 3T3-L1 cells; assay: Adipocyte differentiation / lipogenesis quantitated with oil red O staining; format: cell-based; conditions: for reduction of lipogenesis compared to control untreated adipocytes: oil red O
Procedure: On day 9 post-differentiation, cells were subjected to quantitative oil red O (Thermo Fisher Scientific; Waltham, Mass., USA) staining as adapted and modified from published protocols. Briefly, cells were washed twice with PBS, fixed with 10% formalin for 30 min at room temperature, and stained with oil red O working solution (˜0.2% oil red O in 99% isopropanol) for 30 min. Cells were then washed five times or with sterile water until unincorporated oil red O stain was completely removed. Images of oil red O staining in control and inhibitor-treated cells were digitally photographed using a light microscope (Olympus BX41; Tokyo, Japan). After image capture, 2-propanol (3.5 mL) was added to each dish for 10 min to dissolve the oil red O stain and absorbance was quantified in a plate reader set at 492 nm wavelength. To ensure the absorbance from oil red O staining was within the linear detection range of the plate reader, a calibration curve was established for oil red O staining in adipocytes using a previously described protocol.

human NNMT (mt-hNNMT) = target: T1, human NNMT (mt-hNNMT) (Homo sapiens, UniProt P40261, E101A/E103A/K100A); assay: NNMT activity assay (HPLC-UV detection of MNA), NNMT IC50 curves; conditions: NNMT IC50
T1 sequence (P40261 1-261 K100A/E101A/E103A limits assumed): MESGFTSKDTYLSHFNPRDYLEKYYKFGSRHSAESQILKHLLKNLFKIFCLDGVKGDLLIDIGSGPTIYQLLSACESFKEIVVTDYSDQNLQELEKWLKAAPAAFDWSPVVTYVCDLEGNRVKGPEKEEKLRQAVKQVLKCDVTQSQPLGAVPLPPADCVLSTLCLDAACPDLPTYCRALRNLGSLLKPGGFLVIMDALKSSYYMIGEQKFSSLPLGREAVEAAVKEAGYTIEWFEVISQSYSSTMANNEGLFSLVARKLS

## C[n+]1cccc2c(N)cccc21 [1j, 5-amino-1-methylquinolin-1-ium iodide]
[1]; 30 μM
  reduction of lipogenesis compared to control untreated adipocytes: 50%
[1]; 60 μM
  reduction of lipogenesis compared to control untreated adipocytes: 70%
[1]; 15, 30, 60 μM
  lipid accumulation in differentiating pre-adipocytes (in words): concentration-dependent inhibition of lipid accumulation
Human NNMT (mt-hNNMT)
  IC50: 1200 nM and ~1000 nM
